Test results reported in patent US7897582B2, “Oligonucleotide compositions and methods for the modulation of the expression of B7 protein” (Isis Pharmaceuticals, Inc., priority 2003, dated 2011).
Strand notation (5' to 3'): a small letter for the sugar, then the base; units joined by * are phosphorothioate-linked, units joined directly phosphodiester-linked; [ ] holds rarer units or linkages, { } end groups; capitals alone tell only the bases. e = 2'-O-(2-methoxyethyl) (MOE); [5mC] = 5-methylcytosine; d = 2'-deoxy (DNA)

How the values were obtained:
Type in all cases: cell-based
human B7-2 = assay: Cell surface expression of B7-2 in transfected COS-7 cells by flow cytometry; settings: for % B7-2 EXPRESSION: human B7 cell surface expression, Table 16
Description: (§1) A T-175 flask was seeded at 75% confluency with COS-7 cells (ATCC accession No. CRL 1651). The plasmid pcB7-1 was introduced into cells by standard calcium phosphate transfection. Following a 4 hour transfection, the cells were trypsinized and seeded in 12-well dishes at 80% confluency. The cells were allowed to adhere to the plastic for 1 hour and were then washed with phosphate-buffered saline (PBS). OptiMEM™ (GIBCO-BRL, Gaithersburg, Md.) medium was added along with 15 μg/mL of Lipofectin™ (GIBCO-BRL, Gaithersburg, Md.) and oligonucleotide at the indicated concentrations. After four additional hours, the cells were washed with phosphate buffered saline (PBS) and incubated with fresh oligonucleotide at the same concentration in DMEM (Dulbecco et al., Virol., 1959, 8, 396; Smith et al., Virol., 1960, 12, 185) with 10% fetal calf sera (FCS).
(§2) In order to monitor the effects of oligonucleotides on cell surface expression of B7-1, treated COS-7 cells were harvested by brief trypsinization 24-48 hours after oligonucleotide treatment. The cells were washed with PBS, then resuspended in 100 μL of staining buffer (PBS, 0.2% BSA, 0.1% azide) with 5 μL conjugated anti-B7-1-antibody (i.e., anti-hCD80-FITC, Ancell, Bayport, Minn.; FITC: fluorescein isothiocyanate). The cells were stained for 30 minutes at 4° C., washed with PBS, resuspended in 300 μL containing 0.5% paraformaldehyde. Cells were harvested and the fluorescence profiles were determined using a flow cytometer.
In an initial screen, the ability of hB7-2 oligonucleotides to inhibit B7-2 expression was evaluated by measuring the cell surface expression of B7-2 in transfected COS-7 cells by flow cytometry. The methods used were similar to those given in Example 2, with the exceptions that (1) COS-7 cells were transfected with the plasmids pbcB7-2 or BBG-58, a human ICAM-1 (CD54) expression vector (R&D Systems, Minneapolis, Minn.) introduced into cells by standard calcium phosphate transfection, (2) the oligonucleotides used were those described in Table 2, and (3) a conjugated anti-B7-2 antibody (i.e., anti-hCD86-FITC or anti-CD86-PE, PharMingen, San Diego, Calif.; PE: phycoerythrin) was used during flow cytometry.
(§3) B7 antisense oligonucleotides were tested for their effect on cell surface expression of both B7-1 and B7-2. Cell surface expression was measured as described in Example 1. Experiments were done for both human B7 and mouse B7.
The oligonucleotides were screened as described in Example 2 except that the concentration of oligonucleotide was varied as shown in Table 19.

human B7-1 = assay: Cell surface expression of B7-1 in pcB7-1-transfected COS-7 cells by flow cytometry; settings: for % B7-1 EXPRESSION: human B7 cell surface expression, Table 16; for % Surface Inhibition / % Surface Expression: COS-7 cells, B7-1 cell surface; for % Surface Expression: basal = 100%
Description: The ability of oligonucleotides to inhibit B7-1 expression was evaluated by measuring the cell surface expression of B7-1 in transfected COS-7 cells by flow cytometry.
as §1, §2, §3
The oligonucleotides were screened as described in Example 2 except that the concentration of oligonucleotide was varied as shown in Table 18.

Human B7-1 mRNA = Human B7-1 mRNA expression in COS-7 cells, screened as in Example 4

Question: Which “% B7-2 EXPRESSION” value (human B7-2) does the source give for “22324 (eG*eG*e[5mC]*e[5mC]*eA*dT*dA*dT*dA*dT*dT*d[5mC]*dA*dT*dG*eT*e[5mC]*e[5mC]*e[5mC]*e[5mC]; antisense) [compound 22324]” here?
Answer: 91%

Question: And the “% B7-1 EXPRESSION” value (human B7-1)?
Answer: 37%

Question: What about the “% mRNA EXPRESSION” value (Human B7-1 mRNA; human B7-1 mRNA, Table 7) of the same substance?
Answer: 46%

Question: What does the source list for “22325 (eG*e[5mC]*e[5mC]*eA*eG*dG*dA*dT*d[5mC]*dA*d[5mC]*dA*dA*dT*dG*eG*eA*eG*eA*eG) [compound 22325]”?
Answer: % B7-2 EXPRESSION (human B7-2): 89%; % B7-1 EXPRESSION (human B7-1): 32%; % mRNA EXPRESSION (Human B7-1 mRNA; human B7-1 mRNA, Table 7): 46%

Question: What does the source list for “22334 (antisense eA*eA*eG*e[5mC]*eA*dG*dT*dA*dG*dG*dT*d[5mC]*dA*dG*dG*e[5mC]*eA*eG*e[5mC]*eA) [compound 22334]”?
Answer: % B7-2 EXPRESSION (human B7-2): 92%; % B7-1 EXPRESSION (human B7-1): 28%; % mRNA EXPRESSION (Human B7-1 mRNA; human B7-1 mRNA, Table 7): 43%

Question: With “22335 (antisense e[5mC]*e[5mC]*eT*eT*eG*d[5mC]*dT*dT*d[5mC]*dT*dG*d[5mC]*dG*dG*dA*e[5mC]*eA*e[5mC]*eT*eG) [compound 22335]” as the substance, how does the “% B7-2 EXPRESSION” value (human B7-2) read?
Answer: 95%

Question: And the “% Surface Inhibition” value (human B7-1; dose 10 nM)?
Answer: 19%

Question: What about the “% Surface Expression” value (human B7-1; dose 10 nM) of the same substance?
Answer: 81%

Question: And the “% Surface Inhibition” value (human B7-1; dose 30 nM)?
Answer: 31%

Question: What about the “% Surface Expression” value (human B7-1; dose 30 nM) of the same substance?
Answer: 69%

Question: And the “% Surface Inhibition” value (human B7-1; dose 100 nM)?
Answer: 53%

Question: What about the “% Surface Expression” value (human B7-1; dose 100 nM) of the same substance?
Answer: 47%

Question: What about the “% Surface Inhibition” value (human B7-1; dose 300 nM) of the same substance?
Answer: 62%

Question: What about the “% Surface Expression” value (human B7-1; dose 300 nM) of the same substance?
Answer: 38%

Question: And the “% B7-1 EXPRESSION” value (human B7-1)?
Answer: 23%

Question: What about the “% mRNA EXPRESSION” value (Human B7-1 mRNA; 10 nM, COS-7, Table 8) of the same substance?
Answer: 81%

Question: And the “% mRNA INHIBITION” value (Human B7-1 mRNA; 10 nM, COS-7, Table 8)?
Answer: 19%

Question: And the “% mRNA EXPRESSION” value (Human B7-1 mRNA; 30 nM, COS-7, Table 8)?
Answer: 63%

Question: What about the “% mRNA INHIBITION” value (Human B7-1 mRNA; 30 nM, COS-7, Table 8) of the same substance?
Answer: 37%

Question: And the “% mRNA EXPRESSION” value (Human B7-1 mRNA; 100 nM, COS-7, Table 8)?
Answer: 43%

Question: What about the “% mRNA INHIBITION” value (Human B7-1 mRNA; 100 nM, COS-7, Table 8) of the same substance?
Answer: 57%

Question: What about the “% mRNA EXPRESSION” value (Human B7-1 mRNA; 300 nM, COS-7, Table 8) of the same substance?
Answer: 35%

Question: What about the “% mRNA INHIBITION” value (Human B7-1 mRNA; 300 nM, COS-7, Table 8) of the same substance?
Answer: 65%

Question: What about the “% mRNA EXPRESSION” value (Human B7-1 mRNA; human B7-1 mRNA, Table 7) of the same substance?
Answer: 43%

Question: “22337 (antisense eT*eG*eA*e[5mC]*eG*dG*dA*dG*dG*d[5mC]*dT*dA*d[5mC]*d[5mC]*dT*eT*e[5mC]*eA*eG*eA) [compound 22337]” was tested. Which “% B7-2 EXPRESSION” value (human B7-2) did it give?
Answer: 101%

Question: And the “% B7-1 EXPRESSION” value (human B7-1)?
Answer: 48%

Question: What about the “% mRNA EXPRESSION” value (Human B7-1 mRNA; human B7-1 mRNA, Table 7) of the same substance?
Answer: 42%

Question: “ISIS 13800: phosphorothioate oligonucleotide to human B7-1 mRNA 0158-0177; 5′ UTR; SEQ ID NO: 25 (antisense dA*dC*dA*dC*dA*dC*dA*dG*dA*dG*dA*dT*dT*dG*dG*dA*dG*dG*dG*dT)” was tested. Which “inhibition of B7-1 expression” value (human B7-1; COS-7 cells transiently expressing B7-1 cDNA, FIG. 1) did it give?
Answer: essentially no inhibition

Question: What about the “inhibition of cell surface expression of B7-1 at various concentrations” value (human B7-1; dose response, FIG. 2) of the same substance?
Answer: essentially inactive

Question: With “ISIS 13872: scrambled control of ISIS 13812; SEQ ID NO: 52 (SEQ ID NO: 37) (antisense dA*dG*dT*dC*dC*dT*dA*dC*dT*dA*dC*dC*dA*dG*dC*dC*dG*dC*dC*dT) [reference compound]” as the substance, how does the “effect on B7-2 expression (specificity)” value (human B7-2; FIG. 5) read?
Answer: essentially no activity

Question: And the “effect on B7-1 expression (specificity)” value (human B7-1; FIG. 5)?
Answer: essentially no activity
